This experiment concerns the target Serine/threonine-protein kinase 33 (Homo sapiens, UniProt Q9BYT3). Put plainly: STK33 kinase inhibitors, dose response, biochemical, luminescence, cell-free, retest (AID 2821).

Drawing on BindingDB's records for doi:10.7270/Q2B27SRF (Broad Institute, 2010), this text covers EC50 for 45 compounds.

The structures appear in SMILES notation. Bounds are passed on as bounds.

Chain of Serine/threonine-protein kinase 33 (Q9BYT3 whole entry): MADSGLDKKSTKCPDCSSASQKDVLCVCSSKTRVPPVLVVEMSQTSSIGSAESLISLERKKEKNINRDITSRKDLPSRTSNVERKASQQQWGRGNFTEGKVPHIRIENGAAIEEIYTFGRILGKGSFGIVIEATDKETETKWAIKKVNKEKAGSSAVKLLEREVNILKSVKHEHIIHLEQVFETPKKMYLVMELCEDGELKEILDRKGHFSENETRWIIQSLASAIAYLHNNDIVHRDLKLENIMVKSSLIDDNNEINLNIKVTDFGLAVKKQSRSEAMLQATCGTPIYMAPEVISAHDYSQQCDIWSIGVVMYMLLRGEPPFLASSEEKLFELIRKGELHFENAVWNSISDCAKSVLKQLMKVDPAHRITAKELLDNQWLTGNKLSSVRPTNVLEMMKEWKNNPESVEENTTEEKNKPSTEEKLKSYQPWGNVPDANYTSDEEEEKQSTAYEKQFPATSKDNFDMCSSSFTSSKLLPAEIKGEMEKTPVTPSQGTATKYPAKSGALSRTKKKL

The compound `Oc1ccccc1-c1nc(NCCN2CCOCC2)c2ccccc2n1` [(6E)-6-[4-(2-morpholin-4-ylethylamino)-1H-quinazolin-2-ylidene]cyclohexa-2,4-dien-1-one] had a concentration giving a half-maximal response (EC50) of 14.3 µM.
With `Oc1ccc(CN=Nc2ccnc3cc(Cl)ccc23)cc1O` [(4Z)-4-[[2-(7-chloroquinolin-4-yl)hydrazinyl]methylidene]-2-hydroxycyclohexa-2,5-dien-1-one] the figure was 3.05 µM.
The same measure for `O=C(O)c1cccc(Nc2nc(-c3cccnc3)nc3ccccc23)c1` [SMR000172180]: 32.5 µM; for `CCC(Sc1ccc2nnc(-c3ccc(OC)c(OC)c3)n2n1)C(=O)O` (stereo not given): 13.2 µM.
With `CCc1ccc(NC(S)=Nc2ccc3c[nH]nc3c2)cc1` [SMR000261301] the figure was 9.41 µM; with `COc1ccc2c(c1)C(=Cc1cnc[nH]1)C(=O)N2`, 7.73 µM; with `CCc1ncc(C=C2C(=O)Nc3ccccc32)[nH]1` [3-[(Z)-(2-ethyl-1H-imidazol-5-yl)methylidene]-1H-indol-2-one], 5.25 µM.
`COc1cc(C=Nn2c(-c3cc(C)[nH]n3)n[nH]c2=S)ccc1O` [MLS000778764] showed an EC50 of 27.6 µM.
The same measure for `COc1cc(C(=O)NC2CCN(C)CC2)ccc1Nc1ncc2c(n1)N(C1CCC(O)CC1)CCC(=O)N2C` (stereo not given) [MLS002232305]: 8.38 µM; for `Cc1ccc(NC(=O)c2cccc(C(=O)Nc3ccc(C)cc3C(=O)O)c2)c(C(=O)O)c1` [The compound has not trivial name.]: 21.8 µM; for `Nc1ccc(N=Nc2ccccc2O)c(N)c1` [SMR000476341]: 16.1 µM.
The same measure for `COc1cc(CN=Nc2ccc(C(F)(F)F)cn2)ccc1O` [(4E)-2-methoxy-4-[[[5-(trifluoromethyl)-2-pyridinyl]hydrazo]methylidene]-1-cyclohexa-2,5-dienone]: 19 µM; for `Cc1cc(N2C(=O)c3ccc(C(=O)Nc4ccc(O)cc4C(=O)O)cc3C2=O)no1` [5-hydroxy-2-[[[2-(5-methyl-3-isoxazolyl)-1,3-dioxo-5-isoindolyl]-oxomethyl]amino]benzoic acid]: 24 µM.
In the case of `O=C(CSc1nc(N2CCCCC2)nc(N2CCCCC2)n1)c1ccccc1` [2-[[4,6-di(piperidin-1-yl)-1,3,5-triazin-2-yl]sulfanyl]-1-phenyl-ethanone], the EC50 is above 120 µM.
The same measure for `C[C@H]1CCCC(=O)CCCC=Cc2cc(O)cc(O)c2C(=O)O1` [(11S)-11-methyl-15,17-bis(oxidanyl)-12-oxabicyclo[12.4.0]octadeca-1(18),2,14,16-tetraene-7,13-dione]: 44.6 µM.
With `Cc1ccc(NC(=O)COC(=O)c2cc(Cl)ccc2Cl)c(Br)c1` [SMR000259824] the figure was above 120 µM; with `O=C1C=CC(=CCc2ccnc3ccccc23)C=C1` [MLS000705243], 11.5 µM.
`Oc1ccc(C=Nn2c(-c3ccccc3)n[nH]c2=S)cc1` [SMR000513437] registered a 50% effective concentration (EC50) of 25.8 µM.
In turn, `COc1cc(C=Nn2c(-c3ccccc3)n[nH]c2=S)ccc1O` [(4E)-2-methoxy-4-[[(3-phenyl-5-sulfanylidene-1H-1,2,4-triazol-4-yl)amino]methylidene]cyclohexa-2,5-dien-1-one] gave a half-maximal effective concentration (EC50) of 7.09 µM.
The same measure for `O=C(O)Cc1ccc(N=Cc2c(O)ccc3ccccc23)cc1` [(4-{[(2-hydroxy-1-naphthyl)methylene]amino}phenyl)acetic acid]: 10.7 µM; for `N#Cc1c2ccc(O)cc2n2ccccc12` [3-hydroxypyrido[1,2-a]indole-10-carbonitrile]: 4.59 µM.
As for `O=c1ccc2cc3c([nH]c4ccc(Br)cc43)oc-2c1O` [9-bromo-4-hydroxy-6H-[1]benzopyrano[2,3-b]indol-3-one], the EC50 is 4.01 µM.
The compound `COc1ccc(C(=O)ON=C(C)c2cccs2)cc1` [MLS000544771] yielded an EC50 of 29.1 µM.
In turn, `COc1ccc(-c2oc3ncnc(NCCCN(C)C)c3c2-c2ccc(OC)cc2)cc1` [N-[5,6-bis(4-methoxyphenyl)furo[2,3-d]pyrimidin-4-yl]-N',N'-dimethyl-propane-1,3-diamine] came in with an EC50 of 33.6 µM.
The same measure for `Nc1c(O)ccc2c1C(=O)c1ccccc1C2=O` [1-amino-2-hydroxy-9,10-anthraquinone]: 34.7 µM; for `c1nc(N2CCCC2)c2[nH]cnc2n1` [6-(1-pyrrolidinyl)-7H-purine]: 9.71 µM; for `COC1(OC)N=C(N)C2(C#N)C(c3ccc4c(c3)OCO4)C12C#N` (stereo not given): above 120 µM.
Compound `Oc1ccc(CN=Nc2ccc(C(F)(F)F)cn2)cc1` [4-[[2-[5-(trifluoromethyl)pyridin-2-yl]hydrazinyl]methylidene]cyclohexa-2,5-dien-1-one] yielded a concentration giving a half-maximal response (EC50) of 14.1 µM.
The same measure for `CN1CCc2c(sc3c2c(=O)n(-c2ccccc2)c2n[nH]c(=S)n32)C1` [MLS000558136]: above 120 µM; for `CCSc1nc(N2CCOCC2)c2c(c1C#N)CCCC2` [3-(ethylthio)-1-(4-morpholinyl)-5,6,7,8-tetrahydroisoquinoline-4-carbonitrile]: 8.86 µM; for `Cc1ccc2c(c1)/C(=C/c1ccco1)C(=O)N2` [SMR000312107]: 38.9 µM.
As for `O=C1c2ccccc2-c2onc3ccc(NCCCn4ccnc4)c1c23` [SMR000044769], the EC50 was found to be 8.03 µM.
As to `O=c1c(-c2c(O)cc(O)c3c2O[C@H](c2ccc(O)cc2)CC3)c(-c2ccc(O)cc2)oc2cc(O)cc(O)c12` [3-[(2S)-5,7-dihydroxy-2-(4-hydroxyphenyl)-3,4-dihydro-2H-1-benzopyran-8-yl]-5,7-dihydroxy-2-(4-hydroxyphenyl)-1-benzopyran-4-one], the EC50 was above 120 µM.
The compound `CCCCCCCCCCCCCCCC[n+]1cccc2ccccc21` [1-cetylquinolin-1-ium;iodide] registered an EC50 above 120 µM.
The same measure for `CCOc1ccccc1C(=O)Nc1cc(Cl)ccc1O` [N-(5-chloranyl-2-oxidanyl-phenyl)-2-ethoxy-benzamide]: 6.82 µM; for `COc1ccc(C(=O)ON=C(C)c2ccccc2)cc1` [SMR000159704]: 68.2 µM; for `COc1cc(C)c2c(c1C=O)Oc1c(c(C)c(O)c3c1C(O)OC3=O)OC2=O` (stereo not given) [1,4-Dihydroxy-10-methoxy-5,8-dimethyl-3,7-dioxo-1,3-dihydro-7H-benzo[e]furo[3',4':3,4]benzo[b][1,4]dioxepine-11-carbaldehyde]: 32 µM.
With `c1cncc(Nc2nc(-c3cccnc3)cs2)c1` [SMR000077836] the figure was 26.6 µM; with `O=C(Nc1nc2ccccc2[nH]1)c1ccc(Br)o1` [SMR000352903], 10.1 µM.
As for `CCOc1cc(C=C(C#N)c2n[nH]c(N)c2C#N)ccc1O` [MLS000523215], the EC50 was 8.62 µM.
The same measure for `O=c1c(O)c(-c2cc(O)c(O)c(O)c2)oc2cc(O)cc(O)c12`: 18 µM.
Regarding `CCCn1c2ccc(C(C)N=O)cc2c2cc(C(C)N=O)ccc21` (stereo not given) [1-[6-(1-hydroxyiminoethyl)-9-propyl-3-carbazolyl]ethanone oxime], a half-maximal response (EC50) required 2.48 µM.
The same measure for `O=c1c2ccccc2oc2ccc(NCCCN3CCOCC3)cc12`: 3.82 µM.
In turn, `c1ccc2c3c([nH]c2c1)-c1n[nH]cc1CC3` [3,4,16-triazatetracyclo[7.7.0.0^{2,6}.0^{10,15}]hexadeca-1(9),2,5,10,12,14-hexaene] returned an EC50 of 61 µM.
With `Oc1cc(O)cc(/C=C/c2ccc(O)c(O)c2)c1` the figure was 12.8 µM.
